# Laboratory results as given in US20230234920A1, “Azirine Containing Compounds as Anti-Angiogenesis Agents and a Process for the Preparation Thereof” (COUNCIL OF SCIENTIFIC & INDUSTRIAL RESEARCH, priority 2020, published 2023).
# What was measured:
# Endothelin-1 receptor = test: Endothelin-1 induced contraction of isolated artery rings; design: species or system mice; conditions: all concentrations of ET-1
# From the text: FIG. 15 represents effect of Compound 1 on endothelin-1 concentration-response curves. (A) Concentration-response curve of endothelin-1 in isolated carotid arteries of vehicle-treated (Control) and Compound 1 treated mice. (B) Concentration-response curve of endothelin-1 in isolated carotid arteries of vehicle-treated (Control) and compound 3 along with compound 8 treated mice.
# To test for the selectivity of the putative Endothelin-1 receptor, we applied endothelin-1 or Compound 1 in a concentration dependent manner to the […] to observe its contraction inhibition activity (FIG. 15).
# HUVECs = test: Capillary-like tube formation assay (tubulogenesis); type: cell-based, human; conditions: endothelial tubule network assay; for IC50: Homo sapiens, HUVEC, anti-angiogenic activity, read-out: IC50 value
# Method: FIG. 2 represents effect of Compound 1 on capillary tube formation of HUVECs. Endothelial cells in Matrigel were incubated with ECM basal medium in the presence of compound 1 at the indicated concentrations for 6 h. Cell viability was assessed by Calcein-AM dye added few min. before the completion of 6 h. then photographs at 10×magnification were taken using an inverted microscope. The tubule length of HUVECs was quantified by Leica QWin software. Tubule network formation is expressed as a percentage of that vehicle (0.1% DMSO) treated cells (control).
# FIG. 9 represents effect of racemic mixture (chiral isomer 1-1 and chiral isomer 2-1) of Compound 1 on capillary tube formation of HUVECs. Endothelial cells seeded in matrigel were incubated at the indicated concentrations of compound 1 racemic mixtures (1-1 and 2-1) with ECM basal medium for 6 h. Calcein-AM treatment was added to the ECs few minutes before completion of 6 h and pictures were captured using an inverted microscope at 10×magnification. The tubular structures of HUVECs were measured using Leica QWin software and tubulogenesis was expressed as a % of that vehicle (0.1% DMSO) treated cells (control) well.
# HUVEC cells were incubated with or without sunitinib (20 nM) for 6 h at indicated concentrations of chiral isomers of Compound 1 (1-1 and 2-1). Photographs were taken using an inverted microscope at 10×magnification after Calcein-AM treatment to the ECs few minutes before completion of 6 h. The tubule length of HUVECs was quantified by Leica QWin software represented as a % of that vehicle (0.1% DMSO) treated cells (control) well.
# To examine the effect of Compound 1 on angiogenesis, capillary tube formation assay was performed on regular or reduced growth factor Matrigel, taking VEGF (50 ng/mL) treated cells as a positive control and sunitinib (50 nM) as a negative control (FIG. 2). HUVECs seeded onto the matrigel with compound 1 at different concentrations of (10 μM, 5 μM, 1 μM, 800 nM, 500 nM, 250 nM, 125 nM, 75 nM, 50 nM, 25 nM and 10 nM) were incubated for six hours.
# HUVECs (Human Umbilical Vein Endothelial Cells) were seeded onto the pre-coated matrigel (CORNING; 354230) in 96 wells plate at the rate of 11000 cells/well in incomplete ECM basal medium. Control group received vehicle, VEGF at 50 ng/mL as a positive and sunitinib at 50 nM as a negative control were used. Compound 1 at different dose concentrations (10 μM, 5 μM, 1 μM, 800 nM, 500 nM, 250 nM, 100 nM, 75 nM, 50 nM and 25 nM) were employed on seeded HUVECs in incomplete medium. Post 6 h of incubation Calcein-AM (Invitrogen) was added to all the respective groups and then the tubule pattern was observed and photographs were taken using an inverted fluorescent microscope (DM 6000, Leica Microsystems, USA). Relative tubule lengths were measured using Leica Q-Win software version 3.5.1. (Leica Microsystems, Switzerland).
# [1] = Intramuscular pharmacokinetic study of chiral isomers 1 and 2; type: in vivo, male Sprague Dawley (SD) rats; conditions: IM 20 mg/kg
# Method: In vivo pharmacokinetic study was performed in male Sprague Dawley (SD) rats (n=4). Intramuscular (IM) formulation of compound 1 Chiral 1 and 2 were prepared by individually dissolving accurately weighed quantity of compound 1, chiral isomers 1 and 2 (20 mg) in 1 mL of olive oil followed by vortexing for 2 min and sterilize through syringe filter. Blood samples were collected from the retro orbital plexus of rats under light ether anesthesia into microfuge tubes containing heparin as an anti-coagulant at 0.25, 0.5, 1, 3, 5, 7, 9, 24, 30, 48 and 72 hours post-dosing after intramuscular dose. Plasma sample was harvested by centrifuging the blood at 13000 rpm for 10 min on Sigma 1-15 K (Frankfurt, Germany) and stored frozen at −70±10° C. until bioanalysis. Each plasma sample (100 μl) was processed using protein precipitation method using 200 μl acetonitrile containing medicarpine as internal standard (I.S.) as protein precipitant, and 10 μl of the supernatant was injected for LC-MS/MS.
# [2] = Intramuscular pharmacokinetic study of bulk compound 1 and chiral isomers; type: in vivo, male Sprague Dawley (SD) rats; conditions: IM 20 mg/kg
# Method: In vivo pharmacokinetic study was performed in male Sprague Dawley (SD) rats (n=4). Intramuscular (IM) formulation of bulk of compound 1 as well as chiral isomer-1 and chiral isomer-2 was prepared by dissolving accurately weighed quantity of compound 1 (20 mg) in 1 mL of olive oil followed by vortexing for 2 min and sterilize through syringe filter. Blood samples were collected from the retro orbital plexus of rats under light ether anesthesia into microfuge tubes containing heparin as an anti-coagulant at 0.25, 0.5, 1, 3, 5, 7, 9, 24, 30, 48 and 72 hours post-dosing after intramuscular dose. Plasma sample was harvested by centrifuging the blood at 13000 rpm for 10 min on Sigma 1-15 K (Frankfurt, Germany) and stored frozen at −70±10° C. until bioanalysis. Each plasma sample (100 μl) was processed using protein precipitation method using 200 μl acetonitrile containing medicarpine as internal standard (I.S.) as protein precipitant, and 10 μl of the supernatant was injected for LC-MS/MS.
# [3] = male, Sprague-Dawley, rat, plasma, mean ± S.D., n = 4
# [4] = male, Sprague-Dawley, rat, plasma, mean ± S.D., n = 4, read-out: AUC0-72
# [5] = male, Sprague-Dawley, rat, plasma, mean ± S.D., n = 4, read-out: Cmax
smiles,measurement,setting,value
"CCCCCCCCCCCCC1=NC1C(=O)OCC (centres unmarked) [Compound 3, Ethyl 3-dodecyl-2H-azirine-2-carboxylate]",effect on ET-1 induced contraction of aortic rings,Endothelin-1 receptor,no effect
same,IC50 value,HUVECs; result in words,Not Active
"CCOC(=O)[C@H]1N=C1CCc1ccc(OC)cc1 (single isomer, unassigned) [Chiral isomer (1-1)]",Cl,"[1]; mean ± S.D., n = 4",2.67 ± 0.5 mL/min/kg
same,Vd,"[1]; mean ± S.D., n = 4",3.2 ± 0.84 L/kg
same,AUC(0-inf),[1]; [3],121 ± 24.1 µg·h/mL
same,half-life,[1]; [3],13.3 ± 1.51 h
same,AUC(0-t),[1]; [4],118 ± 24.8 µg·h/mL
same,Cmax,[1]; [5],4810 ± 1560 ng/mL
same,Tmax,"[1]; male, Sprague-Dawley, rat, plasma, read-out: Tmax",9 h
same,Cl,"[2]; mean ± S.D., n = 4",3.03 ± 0.415 mL/min/kg
same,Vd,"[2]; mean ± S.D., n = 4",4.273 ± 1.167 L/kg
same,concentration at 0.25 h,"[2]; male, Sprague-Dawley, rat, plasma, intramuscular, 0.25 h",1680 ± 1060 ng/mL
same,concentration at 0.5 h,"[2]; male, Sprague-Dawley, rat, plasma, intramuscular, 0.5 h",2090 ± 1650 ng/mL
same,concentration at 1 h,"[2]; male, Sprague-Dawley, rat, plasma, intramuscular, 1 h",2580 ± 1960 ng/mL
same,concentration at 3 h,"[2]; male, Sprague-Dawley, rat, plasma, intramuscular, 3 h",2560 ± 590 ng/mL
same,concentration at 5 h,"[2]; male, Sprague-Dawley, rat, plasma, intramuscular, 5 h",2460 ± 880 ng/mL
same,concentration at 7 h,"[2]; male, Sprague-Dawley, rat, plasma, intramuscular, 7 h",2120 ± 940 ng/mL
same,concentration at 9 h,"[2]; male, Sprague-Dawley, rat, plasma, intramuscular, 9 h",3440 ± 260 ng/mL
same,concentration at 24 h,"[2]; male, Sprague-Dawley, rat, plasma, intramuscular, 24 h",2470 ± 570 ng/mL
same,concentration at 30 h,"[2]; male, Sprague-Dawley, rat, plasma, intramuscular, 30 h",1730 ± 150 ng/mL
same,concentration at 48 h,"[2]; male, Sprague-Dawley, rat, plasma, intramuscular, 48 h",593 ± 220 ng/mL
same,concentration at 72 h,"[2]; male, Sprague-Dawley, rat, plasma, intramuscular, 72 h",109 ± 40 ng/mL
same,AUC(0-inf),[2]; [3],111 ± 15 µg·h/mL
same,half-life,[2]; [3],16 ± 2.38 h
same,AUC(0-t),[2]; [4],108 ± 15.9 µg·h/mL
same,Cmax,[2]; [5],3910 ± 847 ng/mL
same,MRT,"[2]; male, Sprague-Dawley, rat, plasma, mean ± S.D., n = 4, read-out: MRT",21 ± 0.463 h
same,Tmax,"[2]; male, Sprague-Dawley, rat, plasma, mean ± S.D., n = 4, read-out: Tmax",6.33 ± 4.62 h
"CCOC(=O)C1N=C1CCc1ccc(OC2CCOC2)cc1 (centres unmarked) [Compound 50, Ethyl 3-(4-((tetrahydrofuran-3-yl)oxy)phenethyl)-2H-azirine-2-carboxylate]",IC50,HUVECs,250 nM
"CCOC(=O)C1N=C1CCc1ccc(Cl)cc1 (centres unmarked) [Compound 8, Ethyl 3-(4-chlorophenethyl)-2H-azirine-2-carboxylate]",effect on ET-1 induced contraction of aortic rings,Endothelin-1 receptor,no effect
same,IC50,HUVECs,500 nM
"C=CCCCC1=NC1C(=O)OCC (centres unmarked) [Compound 2, Ethyl 3-(pent-4-en-1-yl)-2H-azirine-2-carboxylate]",IC50,HUVECs,250 nM
